Measurements published in ChEMBL document CHEMBL1129502, “Betulinic acid and dihydrobetulinic acid derivatives as potent anti-HIV agents” (J Med Chem, 1996).

Columns and labels:
[1] = test system: Human immunodeficiency virus 1; experiment: Inhibitory activity against HIV-1-induced syncytia determined by fusion assay; assay type: functional
H9 = experiment: Inhibitory activity […] in mock infected H9 cells; assay type: functional, cell-based; details: Homo sapiens
[2] = Concentration inhibiting HIV-1 replication by 50% in infected H9 lymphocyte cells; details: human, HIV-1-infected H9 lymphocyte cells
[3] = test system: Human immunodeficiency virus 1; experiment: full Inhibitory activity against HIV-1-induced syncytia; assay type: functional
[4] = test system: HIV-1 reverse transcriptase (Human immunodeficiency virus 1); experiment: Inhibitory activity against HIV-RT; no inhibition

Compound	IC100 [1] [µM]	IC50 (H9) [µM]	EC50 [2] [µM]	IC100 [3] [µM]	IC50 [4]
C=C(C)[C@@H]1CC[C@]2(C(=O)O)CC[C@]3(C)[C@H](CC[C@@H]4[C@@]5(C)CC[C@H](O)C(C)(C)[C@@H]5CC[C@]43C)[C@@H]12 [BETULINIC ACID]	>219	13	1.4		
CC(C)[C@@H]1CC[C@]2(C(=O)O)CC[C@]3(C)[C@H](CC[C@@H]4[C@@]5(C)CC[C@H](OC(=O)CC(C)(C)CC(=O)O)C(C)(C)[C@@H]5CC[C@]43C)[C@@H]12	33	5.8	5.7		
CC(C)[C@@H]1CC[C@]2(C(=O)O)CC[C@]3(C)[C@H](CC[C@@H]4[C@@]5(C)CC[C@H](OC(=O)C(C)(C)CC(=O)O)C(C)(C)[C@@H]5CC[C@]43C)[C@@H]12		7.7	0.56		
CC(C)[C@@H]1CC[C@]2(C(=O)O)CC[C@]3(C)[C@H](CC[C@@H]4[C@@]5(C)CC[C@H](OC(=O)COCC(=O)O)C(C)(C)[C@@H]5CC[C@]43C)[C@@H]12	70	13.1	5.6		
CC(C)[C@@H]1CC[C@]2(C(=O)O)CC[C@]3(C)[C@H](CC[C@@H]4[C@@]5(C)CC[C@H](OC(=O)CC(C)(C)C(=O)O)C(C)(C)[C@@H]5CC[C@]43C)[C@@H]12	34	4.9	< 3.5		
C=C(C)[C@@H]1CC[C@]2(C(=O)O)CC[C@]3(C)[C@H](CC[C@@H]4[C@@]5(C)CC[C@H](OC(=O)CC(C)(C)CC(=O)O)C(C)(C)[C@@H]5CC[C@]43C)[C@@H]12	50	4.5	2.3		
C=C(C)[C@@H]1CC[C@]2(C(=O)O)CC[C@]3(C)[C@H](CC[C@@H]4[C@@]5(C)CC[C@H](OC(=O)CC(C)(C)C(=O)O)C(C)(C)[C@@H]5CC[C@]43C)[C@@H]12 [BEVIRIMAT]	34	7	< 3.5		
C=C(C)[C@@H]1CC[C@]2(C(=O)O)CC[C@]3(C)[C@H](CC[C@@H]4[C@@]5(C)CC[C@H](OC(=O)C(C)(C)CC(=O)O)C(C)(C)[C@@H]5CC[C@]43C)[C@@H]12	34	15.9	2.7		
C=C(C)[C@@H]1CC[C@]2(C(=O)O)CC[C@]3(C)[C@H](CC[C@@H]4[C@@]5(C)CC[C@H](OC(=O)COCC(=O)O)C(C)(C)[C@@H]5CC[C@]43C)[C@@H]12	70	11.7	0.01		
C=C(C)[C@@H]1CC[C@]2(C(=O)NCCCCCCCC(=O)N[C@@H](CC(C)C)[C@@H](O)CC(=O)O)CC[C@]3(C)[C@H](CC[C@@H]4[C@@]5(C)CC[C@H](O)C(C)(C)[C@@H]5CC[C@]43C)[C@@H]12		2.7	0.03	3	Not Active
CC(C)[C@@H]1CC[C@]2(C(=O)O)CC[C@]3(C)[C@H](CC[C@@H]4[C@@]5(C)CC[C@H](O)C(C)(C)[C@@H]5CC[C@]43C)[C@@H]12 [DIHYDROBETULINIC ACID]		12.6	0.9	>218	
